# From ChEMBL document CHEMBL1201862, “PubChem BioAssay data set” (2004)
# Activity calls are given as the source filed them.
# Key:
# Troponin, cardiac muscle = Troponin, cardiac muscle (Homo sapiens, UniProt P19429+P45379+P63316); experiment: Fluorescence-based biochemical high throughput dose response assay for activators of the calcium sensitivity of cardiac Regulated Thin Filaments (RTF). [Related pubchem assays (depositor defined):AID493008, AID493018, AID504382, AID504383]; assay type: protein-complex assay
# BJ [1] = experiment: cytotoxicity toward BJ-TERT fibroblasts, dose response, cell-based, RAS-independent, luminescence (AID 1933); assay type: functional; details: Homo sapiens
# Protein RecA = target: T1, Protein RecA (Mycobacterium tuberculosis, UniProt P9WHJ3); experiment: Fluorescence Cell-Free Homogeneous Dose Retest to Identify Inhibitors of RecA-Intein Splicing Activity. [Related pubchem assays (depositor defined):AID2097, AID2223, AID489010, AID492950]; assay type: functional
# T1 sequence (P9WHJ3 whole entry): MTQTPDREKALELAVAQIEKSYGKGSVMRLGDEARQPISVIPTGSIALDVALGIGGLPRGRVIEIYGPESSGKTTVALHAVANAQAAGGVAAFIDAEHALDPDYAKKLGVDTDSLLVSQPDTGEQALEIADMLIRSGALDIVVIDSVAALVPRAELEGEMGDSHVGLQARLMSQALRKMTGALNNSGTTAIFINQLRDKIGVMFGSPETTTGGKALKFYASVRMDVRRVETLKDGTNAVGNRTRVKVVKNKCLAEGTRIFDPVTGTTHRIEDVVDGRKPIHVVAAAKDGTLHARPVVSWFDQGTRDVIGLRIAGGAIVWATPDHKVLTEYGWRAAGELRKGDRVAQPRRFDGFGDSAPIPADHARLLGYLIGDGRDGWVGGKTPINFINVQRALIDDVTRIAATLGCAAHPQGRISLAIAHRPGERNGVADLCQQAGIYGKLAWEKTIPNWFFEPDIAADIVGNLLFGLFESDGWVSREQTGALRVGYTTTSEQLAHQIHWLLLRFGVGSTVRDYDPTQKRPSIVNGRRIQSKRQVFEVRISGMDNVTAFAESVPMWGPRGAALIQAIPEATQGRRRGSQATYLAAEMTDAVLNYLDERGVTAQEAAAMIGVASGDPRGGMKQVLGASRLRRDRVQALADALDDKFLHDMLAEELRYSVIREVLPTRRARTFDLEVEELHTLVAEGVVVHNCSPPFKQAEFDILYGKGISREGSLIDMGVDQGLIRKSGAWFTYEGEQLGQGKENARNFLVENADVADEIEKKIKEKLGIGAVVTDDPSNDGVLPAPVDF
# HEK293 [2] = experiment: cells; assay type: functional, cell-based; details: Homo sapiens
# BJ [3] = experiment: cytotoxicity toward BJ-TERT-LT-ST fibroblasts, dose response, cell-based, RAS-independent, luminescence (AID 1935); assay type: functional; details: Homo sapiens;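 note: BJ fibroblasts immortalized with TERT plus LT and ST oncogenes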
# [4] = target: T2, Microphthalmia-associated transcription factor (Homo sapiens, UniProt O75030); experiment: TRPM1 promoter luciferase signal decrease, dose response, MITF inhibitor project, cell-based, SK-MEL-5, cherry-picked, set 3 (AID 493073); assay type: functional
# T2 sequence (O75030 whole entry): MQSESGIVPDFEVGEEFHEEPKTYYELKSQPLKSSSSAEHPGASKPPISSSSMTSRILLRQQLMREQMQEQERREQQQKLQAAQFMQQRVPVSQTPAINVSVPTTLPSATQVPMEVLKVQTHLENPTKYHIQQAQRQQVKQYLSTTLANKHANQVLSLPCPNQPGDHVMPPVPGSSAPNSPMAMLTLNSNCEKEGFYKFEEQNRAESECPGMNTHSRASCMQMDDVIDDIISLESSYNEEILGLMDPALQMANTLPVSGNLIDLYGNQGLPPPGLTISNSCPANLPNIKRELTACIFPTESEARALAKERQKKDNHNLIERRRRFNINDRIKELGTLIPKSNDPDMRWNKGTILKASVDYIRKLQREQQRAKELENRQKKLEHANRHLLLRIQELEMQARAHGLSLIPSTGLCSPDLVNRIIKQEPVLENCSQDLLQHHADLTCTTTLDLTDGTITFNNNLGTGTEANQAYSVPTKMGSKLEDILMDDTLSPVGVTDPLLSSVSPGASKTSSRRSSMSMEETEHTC
# [5] = target: Nucleotide-binding oligomerization domain-containing protein 2 (Homo sapiens, UniProt Q9HC29); experiment: NOD2 signaling inhibitors, cell-based, luminescence, uHTS, HEK293 (AID 1566); assay type: functional
# HEK293 [6] = experiment: NOD1 signaling inhibitors, primary screen, cell-based, luminescence, uHTS (AID 1578); assay type: functional; details: Homo sapiens
# [7] = cytotoxicity toward DRD oncogenic fibroblasts, dose response, cell-based, non-viral oncogenic, luminescence (AID 1934); assay type: functional; details: Homo sapiens
# HEK293 [8] = experiment: cells; assay type: functional, cell-based; details: Homo sapiens; remark: listed apart in the source
# BJ [9] = experiment: cells; assay type: functional, cell-based; details: Homo sapiens
# HEK293 [10] = experiment: cells; assay type: functional, cell-based; details: Homo sapiens; remark: listed apart in the source
# HEK293 [11] = experiment: NOD2 signaling inhibitors in MDP-stimulated cells, cell-based, uHTS, luminescence (AID 2001); assay type: functional; details: Homo sapiens
# [12] = target: T3, Replicative DNA helicase DnaB (Mycobacterium tuberculosis, UniProt P9WMR3); experiment: DnaB intein splicing inhibitors, dose response, biochemical, cell-free fluorescence (AID 449749); assay type: functional
# T3 sequence (P9WMR3 whole entry): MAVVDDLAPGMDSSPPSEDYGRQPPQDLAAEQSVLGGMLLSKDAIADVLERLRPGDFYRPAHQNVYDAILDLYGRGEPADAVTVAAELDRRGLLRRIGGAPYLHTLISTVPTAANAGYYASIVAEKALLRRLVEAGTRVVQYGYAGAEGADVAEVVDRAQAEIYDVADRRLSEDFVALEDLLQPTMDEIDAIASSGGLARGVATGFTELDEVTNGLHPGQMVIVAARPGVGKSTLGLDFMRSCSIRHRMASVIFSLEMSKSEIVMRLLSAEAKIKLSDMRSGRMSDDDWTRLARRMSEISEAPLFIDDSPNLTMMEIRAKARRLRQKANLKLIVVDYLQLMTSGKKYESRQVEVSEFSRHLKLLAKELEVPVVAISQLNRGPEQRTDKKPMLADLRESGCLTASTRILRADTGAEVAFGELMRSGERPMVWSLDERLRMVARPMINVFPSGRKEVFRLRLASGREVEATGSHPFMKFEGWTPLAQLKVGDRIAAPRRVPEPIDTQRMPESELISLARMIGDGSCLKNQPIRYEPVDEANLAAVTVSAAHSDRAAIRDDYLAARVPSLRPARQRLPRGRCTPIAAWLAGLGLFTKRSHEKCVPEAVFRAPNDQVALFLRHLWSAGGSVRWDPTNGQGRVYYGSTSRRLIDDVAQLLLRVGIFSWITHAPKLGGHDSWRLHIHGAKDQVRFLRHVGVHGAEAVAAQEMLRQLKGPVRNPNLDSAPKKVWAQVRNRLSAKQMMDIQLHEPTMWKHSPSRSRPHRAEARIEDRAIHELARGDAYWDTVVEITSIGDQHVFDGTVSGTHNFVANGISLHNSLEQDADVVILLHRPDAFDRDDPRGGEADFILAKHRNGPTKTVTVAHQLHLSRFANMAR
# [13] = target: T4, E3 ubiquitin-protein ligase XIAP (Homo sapiens, UniProt P98170); experiment: Counter Screen using XIAP-Bir3 for Chemical Antagonists of Bir1/2 domains of IAP-family anti-apoptotic proteins. [Related pubchem assays (depositor defined):AID1018, AID1449, AID1514, AID1638, AID1749, AID1750, AID488957, AID488963]
# [14] = target: T4, E3 ubiquitin-protein ligase XIAP; experiment: XIAP antagonists, biochemical, IAP family, fluorescence polarization (AID 1018); assay type: functional
compound,measurement,setting,value
O=C(Nc1ccccc1-c1ccccc1)c1ccc(Cl)c([N+](=O)[O-])c1,EC50,"Troponin, cardiac muscle",> 71.5 µM (inactive)
COCCN(C(=O)CCl)C(C(=O)NC1CCCCC1)c1ccccc1C (configuration not stated),EC50,BJ [1],8.42 µM (active)
same,EC50,Protein RecA,1.28 µM (active)
same,IC50,HEK293 [2],6.54 µM (active)
same,EC50,BJ [3],> 150 µM (inconclusive)
same,AC50,[4],17.8 µM (active)
same,EC50,[5],> 20 µM (inactive)
same,EC50,HEK293 [6],4.73 µM (active)
same,EC50,[7],10.5 µM (active)
same,IC50,HEK293 [8],> 20 µM (inactive)
same,EC50,BJ [9],14.4 µM (active)
same,IC50,HEK293 [10],14.9 µM (active)
same,IC50,HEK293 [11],6.74 µM (active)
same,AC50,[12],25 µM (active)
N#Cc1ccccc1CSc1nc2cc(Br)c[nH]c-2n1,IC50,[13],> 100 µM (inactive)
same,IC50,[14],> 100 µM (not active)
O=C(O)c1ncc(-c2ccccc2)cn1,EC50,"Troponin, cardiac muscle",> 71.5 µM (inactive)
